# From article PMC6522510 (Nature Communications, 2019)
# Read-outs that look alike come from different tables or passages of the source. Numbered stars: 1 amine (or outer) side, 2 acyl side, 3 side chain; on linkers, the order of the positions; unused ones are H or OH. Bridge positions count the residues as written; N and C are the ends. Square brackets hold non-standard residues; d marks the D form. Peptide text beside a SMILES is read from it. I, II: the chains in the order shown. Actinocin(9to1) = Cc1c2oc3c(C)ccc(C(=O)[*:1])c3nc-2c(C(=O)[*:2])c(N)c1=O; NMeV = CN[C@H](C(=O)O)C(C)C; Sar = CNCC(=O)O
# Assays:
# Assay in all cases: Secondary dose-response HTS, Cell Titer Glo; call rule not given here
# Format in all cases: cell-based, human
# CHRF288-11 = conditions: for EC50: Homo sapiens, HTS
# M07e = conditions: for EC50: Homo sapiens, M-07e
# U937 = tested on: U937
# MOLM-13 = conditions: MOLM-13
# CMK = conditions: CMK
# CMS = conditions: for EC50: Homo sapiens
# MV4-11 = conditions: MV4-11; for EC50: Homo sapiens
# ML2 = conditions: ML-2; for EC50: Homo sapiens
# [1] = secondary high-throughput screen, CHRF288-11, read-out: average effective concentration, CHRF288-11
# [2] = secondary high-throughput screen, M07e, read-out: average effective concentration, M07e
# [3] = Homo sapiens, U-937, secondary high-throughput screen, U937, read-out: average effective concentration, U937
# [4] = Homo sapiens, secondary high-throughput screen, read-out: average effective concentration, MOLM-13
# [5] = HTS, secondary high-throughput screen, CMS, read-out: average effective concentration, CMS
# [6] = secondary high-throughput screen, read-out: average effective concentration, MV4-11
# [7] = secondary high-throughput screen, read-out: average effective concentration, ML-2
# [8] = secondary high-throughput screen, CHRF288-11
# [9] = secondary high-throughput screen, M07e
# [10] = secondary high-throughput screen, U937
# [11] = secondary high-throughput screen
# [12] = secondary high-throughput screen, CMS
# [13] = Homo sapiens, read-out: average effective concentration, CMK
# [14] = HTS, read-out: average effective concentration, CMS
Compound,EC50 (MOLM-13; [4]),EC50 (MV4-11; [6]),"average effective concentration, CHRF288-11 (CHRF288-11; [8])","average effective concentration, M07e (M07e; [9])","average effective concentration, U937 (U937; [10])","average effective concentration, CMK (CMK; [11])","average effective concentration, CMS (CMS; [12])","average effective concentration, MV4-11 (MV4-11; [11])","average effective concentration, ML-2 (ML2; [11])","average effective concentration, MOLM-13 (MOLM-13; [11])",further results
C[C@@H](Oc1cc(-c2cnn(C3CCNCC3)c2)cnc1N)c1c(Cl)ccc(F)c1Cl [CRIZOTINIB],3900 nM,3900 nM,–,–,–,–,–,–,–,–,"EC50 (CHRF288-11; [1]): 7800 nM; EC50 (M07e; [2]): > 10000 nM; EC50 (U937; [3]): > 10000 nM; EC50 (CMK; Homo sapiens, secondary high-throughput screen, read-out: average effective concentration, CMK): 4200 nM; EC50 (CMS; [5]): 8300 nM; EC50 (ML2; [7]): 4800 nM"
CCCCCCCCCCCCCCCc1cccc(OCC)c1C(=O)Nc1ccc(Cl)c(C(F)(F)F)c1 [CTPB],–,–,Inactive,Inactive,Inactive,Inactive,Inactive,Inactive,Inactive,–,"EC50 (MOLM-13; secondary high-throughput screen, read-out: average effective concentration, MOLM-13): 900 nM"
N#CC(=C(/N)Sc1ccccc1N)/C(C#N)=C(/N)Sc1ccccc1N [Compound U0126],–,–,Inactive,Inactive,Inactive,Inactive,Inactive,Inactive,Inactive,Inactive,–
C[C@H]1[C@@H](O)O[C@@H]2O[C@@]3(C)CC[C@H]4[C@H](C)CC[C@@H]1[C@@]24OO3 [DIHYDROARTEMISININ],8300 nM,2800 nM,–,–,–,–,–,–,–,–,EC50 (CHRF288-11; [1]): 9500 nM; EC50 (M07e; [2]): > 10000 nM; EC50 (U937; [3]): 2300 nM; EC50 (CMK; [13]): > 10000 nM; EC50 (CMS; [14]): > 10000 nM; EC50 (ML2; [7]): 9000 nM
"Cc1c2oc3c(C)ccc(C(=O)N[C@@H]4C(=O)N[C@H](C(C)C)C(=O)N5CCC[C@H]5C(=O)N(C)CC(=O)N(C)[C@@H](C(C)C)C(=O)O[C@@H]4C)c3nc-2c(C(=O)N[C@@H]2C(=O)N[C@H](C(C)C)C(=O)N3CCC[C@H]3C(=O)N(C)CC(=O)N(C)[C@@H](C(C)C)C(=O)O[C@@H]2C)c(N)c1=O [Dactinomycin, reference compound] (I: T[dV]P[Sar][NMeV] / II: T[dV]P[Sar][NMeV]; ester I:1-I:C, II:1-II:C; linker I:N-II:N via Actinocin(9to1))",29 nM,43 nM,–,–,–,–,–,–,–,–,"EC50 (CHRF288-11; 72 h, secondary HTS, 72 h, average of triplicate, read-out: EC50 CHRF288-11): 1 nM; EC50 (M07e; secondary HTS, 72 h, average of triplicate, read-out: EC50 M07e): 1 nM; EC50 (U937; Homo sapiens, U-937, secondary HTS, 72 h, average of triplicate, read-out: EC50 U937): 1 nM; EC50 (MOLM-13; Homo sapiens, secondary HTS, 72 h, average of triplicate, read-out: EC50 MOLM-13): 30 nM; EC50 (CMK; Homo sapiens, secondary HTS, 72 h, average of triplicate, read-out: EC50 CMK): 1 nM; EC50 (CMS; [5]): 36 nM; EC50 (CMS; secondary HTS, 72 h, average of triplicate, read-out: EC50 CMS): 40 nM; EC50 (MV4-11; secondary HTS, 72 h, average of triplicate, read-out: EC50 MV4-11): 40 nM; EC50 (ML2; secondary HTS, 72 h, average of triplicate, read-out: EC50 ML2): 1 nM"
C#Cc1cccc(Nc2ncnc3cc(OCCOC)c(OCCOC)cc23)c1 [ERLOTINIB],> 10000 nM,> 10000 nM,Inactive,Inactive,Inactive,Inactive,Inactive,–,Inactive,–,–
Cc1cnc(Nc2ccc(OCCN3CCCC3)cc2)nc1Nc1cccc(S(=O)(=O)NC(C)(C)C)c1 [FEDRATINIB],51 nM,82 nM,–,–,–,–,–,–,–,–,EC50 (CHRF288-11; [1]): 760 nM; EC50 (M07e; [2]): 2000 nM; EC50 (U937; [3]): 2900 nM; EC50 (CMK; [13]): 240 nM; EC50 (CMS; [14]): 700 nM; EC50 (ML2; [7]): 2900 nM
Cc1ccc(C(=O)COC(=O)c2cccc(NC(=O)c3ccc([N+](=O)[O-])cc3[N+](=O)[O-])c2)cc1 [FM19G11],–,–,Inactive,Inactive,Inactive,Inactive,Inactive,Inactive,Inactive,Inactive,–
Nc1[nH]nc2nnc(-c3c(-c4ccccc4)nn4ccccc34)cc12 [FR 180204],–,–,Inactive,Inactive,Inactive,Inactive,Inactive,Inactive,Inactive,Inactive,–
CSCC[C@H](NC(=O)[C@H](Cc1ccccc1)NC[C@@H](NC[C@@H](N)CS)C(C)C)C(=O)O [FTASE INHIBITOR I],–,–,Inactive,–,Inactive,Inactive,Inactive,Inactive,Inactive,Inactive,"average effective concentration, M07e (M07e; secondary high-throughput screen, […]): Inactive"
COC(=O)[C@H](CCSC)NC(=O)c1ccc(NC[C@@H](N)CS)cc1-c1ccccc1 [FTI-277],–,–,Inactive,Inactive,Inactive,Inactive,Inactive,Inactive,Inactive,Inactive,–
N[C@H](CCC(=O)N[C@@H](Cc1c[nH]c2ccccc12)C(=O)O)C(=O)O [GOLOTIMOD],–,–,Inactive,Inactive,Inactive,Inactive,Inactive,Inactive,Inactive,Inactive,–
CNC(=O)c1c(F)cccc1Nc1nc(Nc2cc3c(cc2OC)CCN3C(=O)CN(C)C)nc2[nH]ccc12 [GSK1838705A],–,–,Inactive,Inactive,–,–,Inactive,Inactive,Inactive,Inactive,"EC50 (U937; secondary high-throughput screen, U937, read-out: average effective concentration, U937): 6200 nM; EC50 (CMK; secondary high-throughput screen, read-out: average effective concentration, CMK): 5800 nM"
COc1ncc(-c2ccc3nccc(-c4ccnnc4)c3c2)cc1NS(=O)(=O)c1ccc(F)cc1F [GSK-2126458],940 nM,1 nM,–,–,–,–,–,–,–,–,EC50 (CHRF288-11; [1]): 1300 nM; EC50 (M07e; [2]): 5600 nM; EC50 (U937; [3]): 1 nM; EC50 (CMK; [13]): 1 nM; EC50 (CMS; [14]): 40 nM; EC50 (ML2; [7]): 1 nM
O=C1Nc2ccc(I)cc2/C1=C/c1cc(Br)c(O)c(Br)c1 [GW 5074],–,–,Inactive,Inactive,Inactive,Inactive,Inactive,Inactive,Inactive,Inactive,–
